From ChEMBL document CHEMBL6087436, “The novel β-hairpin antimicrobial peptide D-G(RF)3 demonstrates exceptional antibacterial efficacy” (Eur J Med Chem, 2025)
The source made the active and inactive calls. The rule behind the calls is not given here.

Columns and labels:
Cell membrane [1] = test: Induction of Cytoplasmic membrane depolarization in Escherichia coli at 1 to 4 times MIC measured for every 10 mins by DiSC3(5) dye based fluorescence method; assay type: subcellular
Staphylococcus aureus [2] = test: Synergistic antibacterial activity against Staphylococcus aureus assessed as fractional inhibitory concentration index in presence of polymyxin B incubated for 18 hrs by checkerboard method; assay type: functional
Cell membrane [3] = test: Induction of cell membrane permeability in Escherichia coli assessed as grooves shallower at 2 times MIC by SEM analysis; assay type: subcellular
Pseudomonas aeruginosa [4] = test: Synergistic antibacterial activity against Pseudomonas aeruginosa assessed as fractional inhibitory concentration index in presence of polymyxin B incubated for 18 hrs by checkerboard method; assay type: functional
Klebsiella pneumoniae [5] = test: Bactericidal activity against Klebsiella pneumoniae ATCC 700603 assessed as bacterial eradication by measuring bacterial counts at 2 times MIC measured after 15 mins by Time killing assay relative to control; assay type: functional; conditions: 0.25 h
Escherichia coli [6] = test: Inhibition of biofilm formation in Escherichia coli ATCC 25922 incubated for 24 hrs by crystal violet staining based analysis; assay type: functional, organism-based; conditions: dose 1-32 µM
Pseudomonas aeruginosa [7] = test: Antibacterial activity against Pseudomonas aeruginosa ATCC 27853 in presence of 6 uM NH4Cl; assay type: functional, organism-based
[8] = Acute toxicity in male balb/c mouse assessed as renal intracellular bleeding at 45.33 mg/kg, ip by H and E staining based analysis; assay type: organism-based; conditions: in vivo
Pseudomonas aeruginosa [9] = test: Antibacterial activity against Pseudomonas aeruginosa ATCC 27853 in presence of 2 mM CaCl2; assay type: functional, organism-based
[10] = Acute toxicity in male balb/c mouse assessed as hepatocyte necrosis at 45.33 mg/kg, ip by H and E staining based analysis; assay type: organism-based; conditions: in vivo
Cell membrane [11] = test: Induction of cell membrane permeability in Staphylococcus aureus assessed as bacterial aggregation into breakage at 2 times MIC measured after 2 hrs by SEM analysis; assay type: subcellular
Cell membrane [12] = test: Induction of cell membrane permeability in Staphylococcus aureus assessed as bacterial dissolution at 2 times MIC measured after 2 hrs by SEM analysis; assay type: subcellular
Cell membrane [13] = test: Induction of cell membrane permeability in Staphylococcus aureus assessed as bacterial aggregation into clusters at 2 times MIC measured after 2 hrs by SEM analysis; assay type: subcellular
Cell membrane [14] = test: Induction of cell membrane permeability in Staphylococcus aureus assessed as bacterial adhesion at 2 times MIC by SEM analysis; assay type: subcellular
Staphylococcus aureus [15] = test: Antibacterial activity against Staphylococcus aureus ATCC 25923 in presence of 1 mM MgCl2; assay type: functional, organism-based
Klebsiella pneumoniae [16] = test: In vivo antibacterial activity against Klebsiella pneumoniae ATCC 700603 infected in male Balb/c mouse lung infection model assessed as reduction in serous exudation of alveolar cavities at 10 mg/kg, ip measured after 24 hrs by H and E staining based analysis; assay type: functional, organism-based
Cell membrane [17] = test: Induction of cell membrane permeability in Staphylococcus aureus assessed as bacterial aggregation into clusters at 2 times MIC measured after 30 mins by SEM analysis; assay type: subcellular
Cell membrane [18] = test: Induction of Outer membrane permeabilization in Escherichia coli at 1 times MIC by NPN-dye based fluorescence analysis; assay type: subcellular
Cell membrane [19] = test: Induction of cell membrane permeability in Staphylococcus aureus assessed as bacterial dissolution at 2 times MIC measured after 30 mins by SEM analysis; assay type: subcellular
Pseudomonas aeruginosa [20] = test: Antibacterial activity against Pseudomonas aeruginosa ATCC 27853 in presence of 4 uM FeCl3; assay type: functional, organism-based
Cell membrane [21] = test: Induction of cell membrane permeability in Staphylococcus aureus assessed as bacterial aggregation into breakage at 2 times MIC measured after 30 mins by SEM analysis; assay type: subcellular
[22] = Acute toxicity in male balb/c mouse assessed as mortality at 25 to 50 mg/kg, ip measured after 50 mins by karber method; assay type: organism-based; conditions: in vivo, dose 25-50 mg/kg
Cell membrane [23] = test: Induction of cell membrane permeability in Staphylococcus aureus assessed as bacterial collapse at 2 times MIC by SEM analysis; assay type: subcellular
Escherichia coli [24] = test: Synergistic antibacterial activity against Escherichia coli assessed as fractional inhibitory concentration index in presence of kanamycin incubated for 18 hrs by checkerboard method; assay type: functional
Klebsiella pneumoniae [25] = test: Bactericidal activity against Klebsiella pneumoniae ATCC 700603 assessed as bacterial eradication by measuring bacterial counts at 1 times MIC measured after 30 mins by Time killing assay relative to control; assay type: functional; conditions: 0.5 h
Cell membrane [26] = test: Induction of Cytoplasmic membrane depolarization in Staphylococcus aureus at 4 times MIC measured for every 10 mins by DiSC3(5) dye based fluorescence method; assay type: subcellular
Escherichia coli [27] = test: Antimicrobial activity against Escherichia coli at 2 times MIC in presence of LPS preincubated for 1 hr followed by bacterial addition and measured after 6 hrs by LPS competitive inhibition assay; assay type: functional, organism-based
Staphylococcus aureus [28] = test: Synergistic antibacterial activity against Staphylococcus aureus assessed as fractional inhibitory concentration index in presence of ciprofloxacin incubated for 18 hrs by checkerboard method; assay type: functional
Cell membrane [29] = test: Induction of cell membrane permeability in Staphylococcus aureus assessed as bacterial aggregation at 2 times MIC measured after 30 mins by SEM analysis; assay type: subcellular
Cell membrane [30] = test: Induction of Inner membrane permeabilization in Escherichia coli ML-35 ATCC […] at 4 times MIC measured every 5 mins for 120 mins by ONPG dye based assay; assay type: subcellular
Escherichia coli [31] = test: Inhibition of biofilm formation in Escherichia coli ATCC 25922 at 1 uM incubated for 24 hrs by crystal violet staining based analysis; assay type: functional, organism-based
Cell membrane [32] = test: Induction of Inner membrane permeabilization in Escherichia coli ML-35 ATCC […] at 2 times MIC measured every 5 mins for 120 mins by ONPG dye based assay; assay type: subcellular
Staphylococcus aureus [33] = test: Additive antibacterial activity against Staphylococcus aureus assessed as fractional inhibitory concentration index in presence of polymyxin B incubated for 18 hrs by checkerboard method; assay type: functional
Escherichia coli [34] = test: Antimicrobial activity against Escherichia coli at 2 times MIC in presence of LPS at 64 uM preincubated for 1 hr followed by bacterial addition and measured after 6 hrs by LPS competitive inhibition assay; assay type: functional, organism-based; conditions: time 7.0 hrs
Cell membrane [35] = test: Induction of cell membrane permeability in Staphylococcus aureus assessed as agglutination with leaked contents at 2 times MIC measured after 2 hrs by SEM analysis; assay type: subcellular
Escherichia coli [36] = test: Additive antibacterial activity against Escherichia coli assessed as fractional inhibitory concentration index in presence of kanamycin incubated for 18 hrs by checkerboard method; assay type: functional
Klebsiella pneumoniae [37] = test: Bactericidal activity against Klebsiella pneumoniae ATCC 700603 assessed as bacterial eradication by measuring bacterial counts at 2 times MIC measured after 30 mins by Time killing assay relative to control; assay type: functional; conditions: 0.5 h
[38] = Acute toxicity in male balb/c mouse assessed as mortality at 63.2 to 100 mg/kg, ip measured after 7 days by karber method; assay type: organism-based; conditions: in vivo, 168 h, dose 63.2-100 mg/kg, time 7 day
Staphylococcus aureus [39] = test: Additive antibacterial activity against Staphylococcus aureus assessed as fractional inhibitory concentration index in presence of ciprofloxacin incubated for 18 hrs by checkerboard method; assay type: functional
[40] = Acute toxicity in male balb/c mouse assessed as hepatocyte necrosis at 81.28 mg/kg, ip by H and E staining based analysis; assay type: organism-based; conditions: in vivo
Cell membrane [41] = test: Induction of cell membrane permeability in Staphylococcus aureus assessed as rupture of bacteria with leaked contents at 2 times MIC measured after 30 mins by SEM analysis; assay type: subcellular

N=C(N)NCCC[C@@H](NC(=O)CNC(=O)[C@H]1CCCN1C(=O)[C@@H](CCCNC(=N)N)NC(=O)[C@@H](Cc1ccccc1)NC(=O)[C@@H](CCCNC(=N)N)NC(=O)[C@@H](Cc1ccccc1)NC(=O)[C@@H](CCCNC(=N)N)NC(=O)[C@H](N)Cc1ccccc1)C(=O)N[C@H](Cc1ccccc1)C(=O)N[C@H](CCCNC(=N)N)C(=O)N[C@H](Cc1ccccc1)C(=O)N[C@H](CCCNC(=N)N)C(=O)N[C@H](Cc1ccccc1)C(N)=O
Activity (Cell membrane [1]): Active | fractional inhibitory concentration index (FICI) (Staphylococcus aureus [2]): 0.375 | Activity (Cell membrane [3]): Active | fractional inhibitory concentration index (FICI) (Pseudomonas aeruginosa [4]): 0.313 | Activity (Klebsiella pneumoniae [5]): 100% | inhibition (Escherichia coli [6]): Dose-dependent-effect | Activity (Pseudomonas aeruginosa [7]): Active | Activity [8]: Toxic | Activity (Pseudomonas aeruginosa [9]): Active | Activity [10]: Toxic | Activity (Cell membrane [11]): Active | Activity (Cell membrane [12]): Active | Activity (Cell membrane [13]): Active | Activity (Cell membrane [14]): Active | Activity (Staphylococcus aureus [15]): Active | Activity (Klebsiella pneumoniae [16]): Active | Activity (Cell membrane [17]): Active | Activity (Cell membrane [18]): Active; Comparable Permeability To Polymyxin B Was Observed | Activity (Cell membrane [19]): Active | Activity (Pseudomonas aeruginosa [20]): Active | Activity (Cell membrane [21]): Active | Activity [22]: Toxic | Activity (Cell membrane [23]): Active | fractional inhibitory concentration index (FICI) (Escherichia coli [24]): 0.313 | Activity (Klebsiella pneumoniae [25]): 100% | Activity (Cell membrane [26]): Active; Comparable Depolarization To Valinomycin Was Observed | Activity (Escherichia coli [27]): inactive | fractional inhibitory concentration index (FICI) (Staphylococcus aureus [28]): 0.313 | Activity (Cell membrane [29]): Active | Activity (Cell membrane [30]): Active | inhibition (Escherichia coli [31]): Active

N=C(N)NCCC[C@H](NC(=O)CNC(=O)[C@H]1CCCN1C(=O)[C@H](CCCNC(=N)N)NC(=O)[C@H](Cc1ccccc1)NC(=O)[C@H](CCCNC(=N)N)NC(=O)[C@H](Cc1ccccc1)NC(=O)[C@H](CCCNC(=N)N)NC(=O)[C@@H](N)Cc1ccccc1)C(=O)N[C@@H](Cc1ccccc1)C(=O)N[C@@H](CCCNC(=N)N)C(=O)N[C@@H](Cc1ccccc1)C(=O)N[C@@H](CCCNC(=N)N)C(=O)N[C@@H](Cc1ccccc1)C(N)=O
Activity (Cell membrane [3]): Active | Activity (Cell membrane [32]): Active | fractional inhibitory concentration index (FICI) (Staphylococcus aureus [33]): 0.625 | Activity (Escherichia coli [34]): inactive | inhibition (Escherichia coli [6]): Dose-dependent-effect | Activity (Pseudomonas aeruginosa [7]): Active | Activity (Pseudomonas aeruginosa [9]): Active | Activity (Cell membrane [35]): Active | fractional inhibitory concentration index (FICI) (Escherichia coli [36]): 0.563 | Activity (Klebsiella pneumoniae [37]): 100% | Activity [38]: Toxic | Activity (Staphylococcus aureus [15]): Active | Activity (Klebsiella pneumoniae [16]): Active | Activity (Pseudomonas aeruginosa [20]): Active | fractional inhibitory concentration index (FICI) (Staphylococcus aureus [39]): 0.563 | Activity [40]: Toxic | Activity (Cell membrane [41]): Active
